Results on 18 compounds are retold here after US20260209219A1, “SUBSTITUTED TETRAHYDROPYRROLO-PYRIDINONE COMPOUNDS AND THEIR USE IN TREATING MEDICAL CONDITIONS” (Karuna Therapeutics, Inc., priority 2022, published 2026).

For one assay, the target named is T1, hM4 receptors (Homo sapiens, UniProt P08173).
T1 construct: expressed in transfected cells; host or cells: CHO cells
T1 sequence (P08173 1-479): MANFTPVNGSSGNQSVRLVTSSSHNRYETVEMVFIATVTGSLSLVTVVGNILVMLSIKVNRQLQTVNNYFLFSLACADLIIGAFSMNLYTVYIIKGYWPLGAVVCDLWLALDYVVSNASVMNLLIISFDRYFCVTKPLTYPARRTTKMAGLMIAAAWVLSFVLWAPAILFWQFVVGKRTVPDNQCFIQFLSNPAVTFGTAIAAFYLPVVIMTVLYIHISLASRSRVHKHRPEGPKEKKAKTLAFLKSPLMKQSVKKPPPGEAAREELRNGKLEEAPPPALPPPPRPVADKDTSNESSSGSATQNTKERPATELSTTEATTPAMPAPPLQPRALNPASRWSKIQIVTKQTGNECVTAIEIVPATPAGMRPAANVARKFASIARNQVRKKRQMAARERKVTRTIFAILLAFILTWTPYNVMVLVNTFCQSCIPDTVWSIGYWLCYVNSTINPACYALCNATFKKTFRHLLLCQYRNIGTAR
As to the kind of experiment: Human M4 PAM pERK assay. In kind it is cell-based. As to conditions: CHO cells expressing hM4; with EC20 of acetylcholine (10 nM final). As for the experimental part: (§1) Chinese hamster ovary (CHO) cells expressing either hM4 or rM4 receptors were frozen in assay ready vials (5×10^6 cells/vial) after bulking-up in culture. The day before an assay, vial(s) were thawed and cells seeded in 384 well white proxiplates at 1000/well for hM4 cells and at 2000/well for rM4 cells, in 10 μL of growth media (Hams/F12 with glutamax and 10% FCS) and incubated overnight at 37° C./5% CO2.
(§2) On the following morning, the growth media was removed by ‘flicking out’ over a bin, patting the inverted plate onto tissue, and then replacing with 10 μL of wash media (Hams/F12 with glutamax and 8 mM HEPES, NB: serum free). Then, the wash media was removed in the same way and replaced with 8 μL/well of the serum free media. Plates were then re-incubated for a further 4 hours at 37° C./5% CO2.
(§3) Compounds for testing were solubilized to 10 mM in DMSO and compound addition plates, consisting of ten-point concentration response curves (CRC) in duplicate points (10 μM top concentration, ½ log dilution series), were prepared by acoustic dispensing and the compound management group.
(§4) After the 4-hour incubation in serum free media, a 4 μL aliquot of the 3× compound solution containing an EC20 of acetylcholine (10 nM final concentration) was added to the cell plate using a 384 well plate to plate transfer. Then, the plate lid was replaced, and the cells incubated for 5 mins at 37° C./5% CO2. Following this final incubation, all cellular processes were stopped by the addition of 4 μL/well of lysis and blocking buffer and plates were incubated for 30 minutes at RT on an orbital shaker (gentle setting). Then, a final addition of 4 μL/well of antibody detection mix, containing both the Europium-Cryptate (donor) and d2 (acceptor) tagged detection components, was added followed by a further 2-hour incubation at RT, and then the plate was read using a TR-FRET (time resolved fluorescence resonance energy transfer) based protocol.

The target of the next assay is T2, rM4 receptors (Rattus norvegicus, UniProt P08485).
T2 construct: expressed in transfected cells; host or cells: CHO cells
T2 sequence (P08485 1-478): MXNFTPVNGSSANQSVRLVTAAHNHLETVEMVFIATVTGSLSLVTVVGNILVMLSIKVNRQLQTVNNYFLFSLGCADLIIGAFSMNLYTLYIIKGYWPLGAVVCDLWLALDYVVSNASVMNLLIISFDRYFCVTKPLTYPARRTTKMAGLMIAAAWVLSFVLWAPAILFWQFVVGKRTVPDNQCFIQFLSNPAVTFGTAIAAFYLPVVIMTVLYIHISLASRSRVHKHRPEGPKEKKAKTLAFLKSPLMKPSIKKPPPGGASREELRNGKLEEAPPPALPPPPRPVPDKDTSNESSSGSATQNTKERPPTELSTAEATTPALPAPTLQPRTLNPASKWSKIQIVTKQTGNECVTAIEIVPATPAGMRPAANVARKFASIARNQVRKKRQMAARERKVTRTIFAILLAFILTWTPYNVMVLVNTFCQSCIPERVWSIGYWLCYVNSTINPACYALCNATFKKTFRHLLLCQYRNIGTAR
As to the kind of experiment: Rat M4 PAM pERK assay. As to conditions: CHO cells expressing rM4; with EC20 of acetylcholine (10 nM final). In kind it is cell-based. As for the experimental part: as §1, §2, §3, §4

The target of the next assay is T3, human M4 receptor (Homo sapiens, UniProt P08173).
T3 construct: expressed in transfected cells; host or cells: CHO-K1 cells (membrane preparation)
T3 sequence (P08173 1-479): T1 sequence (P08173 1-479)
As to the kind of experiment: M4 GTPγS PAM assay. It counts as biochemical. As to conditions: membranes of CHO-K1 cells stably expressing human M4; EC20 acetylcholine 40 nM. The protocol:
The M4 GTPγS PAM method was used. Membranes were prepared for GTPgS binding assays from CHO-K1 cells stably expressing human M4 receptor. Briefly, cells were grown in 5-layer cell culture flasks. Cells were washed with 50 mL of PBS and then dissociated with 0.05% trypsin. Dissociated cells were then collected by centrifugation at 650×g for 8 minutes at 4° C. Pellets were washed again in PBS by centrifugation and resuspended in 30 mL of 20 mM HEPES, 10 mM EDTA, pH 7.4. After sitting on ice for 30 min, membranes were collected by centrifugation at 50000×g for 15′ at 4° C., resuspended in 30 mL of 20 mM HEPES, 0.1 mM EDTA, pH 7.4 and collected again by centrifugation. Pellets were then washed twice by centrifugation in 30 mL of 20 mM HEPES, pH 7.4, and stored at −80° C. until the day of the assay. On the day of the assay, pellets were thawed on ice and resuspended in 1 mL of 20 mM HEPES, pH 7.4, 10 mM MgCl2, 100 mM NaCl using dounce homogenization. Membrane protein concentration is determined by BCA protein assay (Promega, Madison, WI) according to Promega guidelines.
On the day of the assay, serial dilutions of test PAM compounds were brought up in assay buffer (20 mM HEPES, 10 mM MgCl2, 100 mM NaCl) at 4× final assay concentration. […] of membrane homogenates (containing […] of membrane protein) were prepared in assay buffer supplemented with GDP at 4× final assay concentration (final assay concentration of GDP is 5 μM for M2 and 0.1 μM for M4) and dispensed into 96 well polypropylene, U-bottom Greiner plates. […] of vehicle or test PAM compound at 4× of final assay concentration diluted in the assay buffer were added to membrane and plates are incubated for 10-15 minutes at room temperature with gentle shaking. Then, […] of EC20 acetylcholine in assay buffer at 4× final assay concentration was added to assay plates (EC20 final assay concentrations was 40 nM for human M4).
Plates were then incubated, with shaking, for an additional 10-15 minutes. 25 mL of 0.4 nM ^35S-GTP (Perkin Elmer, Waltham, MA) in assay buffer was added to assay mixtures. The binding reaction is left on the shaker for 1 hour at room temperature. Membranes in assay reactions were then transferred to GF/C filter plates (Unifilter, Perkin Elmer) and washed three times using a FilterMate Harvester (Perkin Elmer) with cold assay buffer containing no GDP. Filter plates were then dried at 40° C. overnight followed by the addition of […] of Beta Plate Scintillation liquid. Plates are top and bottom sealed before being read on TopCount scintillation counter (Perkin Elmer, Waltham, MA).

Where only a bound is given, the exact number is not on record here.

Turning to `Cc1cc(=O)n(C)c2c1CN(C(=O)CC1CC1)C2` [Compound I-10], the results for the EC50 at hM4 receptors, on rM4 receptors and at human M4 receptor were 500 to 2000 nM, above 2000 nM and 500 to 2000 nM, respectively.
With `Cc1c2c(n(C)c(=O)c1Cl)CN(C(=O)CC1CC1c1ccc(C(F)(F)F)cc1)C2` (single isomer, unassigned) [Compound I-32], the EC50 lay in the range of 500 to 2000 nM on hM4 receptors, 500 to 2000 nM on rM4 receptors and 100 to 500 nM at human M4 receptor.
As for `Cc1c2c(n(C)c(=O)c1C)CN(C(=O)CC1CC1c1cc(F)cc(F)c1)C2` (stereo not drawn) [Compound I-21], the EC50 on hM4 receptors is below 100 nM; on rM4 receptors it was 100 to 500 nM; at human M4 receptor, below 100 nM.
Consider `Cc1c2c(n(C)c(=O)c1C)CN(C(=O)CC1CC1c1cc(F)cc(F)c1)C2` (single isomer, unassigned) [Compound I-22], for which the EC50 was above 2000 nM at hM4 receptors, above 2000 nM at rM4 receptors and 500 to 2000 nM at human M4 receptor.
`Cc1cc(=O)n(C)c2c1CN(C(=O)CC1CC1c1ccc(C(F)(F)F)nc1)C2` (single isomer, unassigned) [Compound I-4]: the EC50 on hM4 receptors, at rM4 receptors and on human M4 receptor was above 2000 nM in each case.
As for `COc1c2c(n(C)c(=O)c1C)CN(C(=O)CC1CC1c1ccc(C(F)(F)F)cc1)C2` (stereo not drawn) [Compound I-30], the EC50 at hM4 receptors is above 2000 nM; at rM4 receptors it was 500 to 2000 nM; at human M4 receptor it was above 2000 nM.
For `COc1c2c(n(C)c(=O)c1C)CN(C(=O)CC1CC1c1ccc(C(F)(F)F)cc1)C2` (single isomer, unassigned) [Compound I-29, 4-Methoxy-1,3-dimethyl-6-([trans-2-(2-(4-(trifluoromethyl)phenyl)cyclopropyl)]acetyl)-1,5,6,7-tetrahydro-2H-pyrrolo[3,4-b]pyridin-2-one], the EC50 was 100 to 500 nM on hM4 receptors, 100 to 500 nM at rM4 receptors and below 100 nM on human M4 receptor.
On to `Cc1c2c(n(C)c(=O)c1Cl)CN(C(=O)CC1CC1c1ccc(C(F)(F)F)cc1)C2` (single isomer, unassigned) [Compound I-33], for which the EC50 on hM4 receptors, on rM4 receptors and on human M4 receptor was below 100 nM throughout.
`Cc1c2c(n(C)c(=O)c1C)CN(C(=O)C[C@@H]1C[C@H]1c1ccc(C(F)(F)F)cc1)C2` (relative stereo) [Compound I-18, 1,3,4-Trimethyl-6-([trans-2-(2-(4-(trifluoromethyl)phenyl)cyclopropyl)]acetyl)-1,5,6,7-tetrahydro-2H-pyrrolo[3,4-b]pyridin-2-one]: the EC50 at hM4 receptors, at rM4 receptors and at human M4 receptor was 100 to 500 nM each time.
For the compound `Cc1c2c(n(C)c(=O)c1F)CN(C(=O)CC1CC1c1ccc(C(F)(F)F)cc1)C2` (single isomer, unassigned) [Compound I-25, 3-Fluoro-1,4-dimethyl-6-([trans-2-(2-(4-(trifluoromethyl)phenyl)cyclopropyl)]acetyl)-1,5,6,7-tetrahydro-2/I-pyrrolo[3,4-b]pyridin-2-one], the results for the half-maximal effective concentration (EC50) at hM4 receptors, at rM4 receptors and on human M4 receptor were 500 to 2000 nM, above 2000 nM and 100 to 500 nM, respectively.
The corresponding values for `Cc1c2c(n(C)c(=O)c1Cl)CN(C(=O)CC1CC1c1cc(F)cc(F)c1)C2` (single isomer, unassigned) [Compound I-35] are 500 to 2000 nM, above 2000 nM and above 2000 nM.
The corresponding values for `Cc1c2c(n(C)c(=O)c1C)CN(C(=O)CC1CC1c1cc(F)cc(F)c1)C2` (single isomer, unassigned) [Compound I-23] are below 100 nM, below 100 nM and below 100 nM.
Take `Cc1c2c(n(C)c(=O)c1F)CN(C(=O)CC1CC1c1cc(F)cc(F)c1)C2` (single isomer, unassigned) [Compound I-27]: the EC50 on hM4 receptors, at rM4 receptors and at human M4 receptor was below 100 nM each time.
As to `Cc1c2c(n(C)c(=O)c1Cl)CN(C(=O)C[C@@H]1C[C@H]1c1ccc(C(F)(F)F)cc1)C2` (relative stereo) [Compound I-31, 3-Chloro-1,4-dimethyl-6-([trans-2-(2-(4-(trifluoromethyl)phenyl)cyclopropyl)]acetyl)-1,5,6,7-tetrahydro-2H-pyrrolo[3,4-b]pyridin-2-one], the EC50 on hM4 receptors, at rM4 receptors and at human M4 receptor was 100 to 500 nM each time.
As for `Cc1c2c(n(C)c(=O)c1Cl)CN(C(=O)CC1CC1c1cc(F)cc(F)c1)C2` (stereo not drawn) [Compound I-34], the EC50 on hM4 receptors, at rM4 receptors and on human M4 receptor was below 100 nM each time.
On to `Cc1c2c(n(C)c(=O)c1C)CN(C(=O)CC1CC1c1cccc(F)c1F)C2` (stereo not drawn) [Compound I-24], for which the values for the EC50 on hM4 receptors, on rM4 receptors and on human M4 receptor were below 100 nM, 100 to 500 nM and below 100 nM, respectively.
As to `Cc1cc(=O)n(C)c2c1CN(C(=O)CC1CC1c1cccc(C3COC3)c1)C2` (single isomer, unassigned) [Compound I-13], the EC50 at hM4 receptors, at rM4 receptors and on human M4 receptor was above 2000 nM throughout.
For `Cc1cc(=O)n(C)c2c1CN(C(=O)CC1CC1c1ccc(C(F)(F)F)nc1)C2` (stereo not drawn) [Compound I-3], the EC50 at hM4 receptors, at rM4 receptors and at human M4 receptor was 500 to 2000 nM each time.
